Laboratory results as given in article PMC11251039, “Harnessing cholesterol uptake of malaria parasites for therapeutic applications” (EMBO Molecular Medicine, 2024).
pIC50: −log10 of the molar value. Where “and” joins values, the source holds several entries; their conditions need not be identical. Equal entries are not always repeated.

Tests used:
[1] = test system: P. falciparum stage III–IV gametocytes; assay: P. falciparum gametocyte viability assay (MitoTracker, flow cytometry), stage III-IV; format: cell-based, Plasmodium falciparum; conditions: 48 h; for Gametocyte stage III-IV viability, percentage of control: replicate values, source data Fig. 2C
Method: (§1) Gametocyte assays commenced seven days (stage III–IV) or ten days (stage V) post-invasion. […]
(§2) Plasmodium falciparum Gametocyte Viability Assays:
(§3) Asexual P. falciparum parasites were induced to form gametocytes as described (21).
(§4) Synchronized trophozoite-stage parasites at 2% parasitaemia were incubated overnight and […]
(§5) haematocrit maintained at 4%. On the subsequent day (designated as day 0) of gametocytogenesis, the culture containing early ring-stage parasites was first purified by sorbitol synchronisation to remove asynchronous trophozoites, and passed through a magnetic field in a sterile MACS® column in a SuperMACSTM II magnet to remove remaining late-stage parasites or later-stage gametocytes (negative selection). The culture medium was supplemented with 50 mM N-acetyl-D-glucosamine to inhibit asexual parasite proliferation, and changed daily. Sorbitol treatment was performed on Day 1, 5, and 6 to further remove asexual parasites. Gametocytes were magnetically enriched (positive selection) in a sterile column with a SuperMACSTM II magnet and eluted in culture media with 50 mM N-acetyl-D-glucosamine. These gametocytes were incubated overnight at 37 °C under microaerophilic conditions, and purity was assessed by examination under a light microscope (400× […]
(§6) Gametocyte viability was assessed as described by Ridgway et al. (21) with modifications.
(§7) Compounds or solvent controls (DMSO) were serially diluted across 96-well plates in culture media supplemented with 50 mM N-acetyl-D-glucosamine. Culture media without compound was used as a negative control. […]
(§8) control to determine background gametocyte fluorescence. Stage III-IV gametocytes (Day 7) or stage V (day 10) gametocytes were concentrated and added to the plate with 200 µL per well. The plate was incubated for 48 hours at 37 °C under humid microaerophilic conditions.
(§9) Parasites were then stained with 500 nM MitoTrackerTM Deep Red FM and 5 μg/ml Hoechst […]
(§10) cytometer as described above. […]
(§11) excluded. Live (positive) and dead (negative) gametocytes were differentiated by […]
(§12) percentage of each was calculated. […]

[2] = test system: P. falciparum stage V gametocytes; assay: P. falciparum gametocyte viability assay (MitoTracker, flow cytometry), stage V; format: cell-based, Plasmodium falciparum; conditions: 48 h; for Gametocyte stage V viability, percentage of control: replicate values, source data Fig. 2D
Method: as §1, §2, §3, §4, §5, §6, §7, §8, §9, §10, §11, §12

[3] = test system: Toxoplasma gondii tachyzoites (RH strain); assay: Toxoplasma growth inhibition assay (tdTomato fluorescence, in HFF cells); format: cell-based; conditions: Toxoplasma gondii, HFF, 72 h, read-out: IC50, T. gondii tachyzoite growth inhibition
Method: Fluorescence was measured daily with a fluorescence microplate reader for one week, and the background fluorescence from the time 0 reading was subtracted from all other measurements. […]
Toxoplasma Growth Inhibition Assays:
Growth inhibition was investigated as described previously (26). Fluorescent Toxoplasma gondii parasites were inoculated into an optical bottom 96-well plate containing confluent human foreskin fibroblast (HFF) host cells at a density of 2,000 parasites/well, with a serial dilution of each compound, or culture media/DMSO (0.1% v/v) alone. Plates were measured daily with a FluoStar Optima fluorescence plate reader at 540 nm excitation and 590 nm emission for one week, and the background fluorescence from the time 0 reading was subtracted from all other measurements. […]

P. berghei liver stages = assay: Plasmodium berghei liver stage growth inhibition assay (luminescence, in Huh7 cells); conditions: for P. berghei liver stage growth, dose-response data points (Figure 3A): replicate data points; for P. berghei liver stage growth, dose-response data points (Figure 3A) / Figure 3E dose-response value (replicates): listed as HJB8a53
Method: Growth inhibition or cell viability were assessed by incubation with a serial dilution of test compounds, solvent controls (DMSO, ethanol, ethyl acetate), or culture media alone in 96-well plates, with detection of fluorescence, luminescence, or absorbance in microplate readers after 24–96 h unless otherwise specified.
Huh7 cells were seeded at a density of 10,000 cells per well of a 96-well plate, or 20,000 cells per collagen-coated coverslip. After 24 h, test compounds were added the wells were inoculated with P. berghei liver stage sporozoites dissected from infected A. stephensi salivary glands with 5000–10,000 sporozoites per well or 10,000–20,000 sporozoites per coverslip. Uninfected wells served as a control for background luminescence. Luminescence signal was measured 48 h post-invasion by addition of 1:1 ONE-Glo^TM substrate (Promega) with a luminescence microplate reader. Coverslips were fixed, stained, and imaged, with all parasites on each coverslip imaged and delineated as described (Petersen et al, [2017]) using Fiji ImageJ (Schindelin et al, [2012]). Data are presented as a percentage of the size or parasite number of the solvent control to normalize for differences between experiments.
Growth inhibition data were normalised by subtracting background fluorescence, luminescence, absorbance, or percentage of cells from a no-growth or no-viability control (high drug concentration, no-parasite control, or time = 0 measurement as specified), and expressed as a percentage of the growth or cell percentage in the negative control (culture media alone or solvent control) at the indicated timepoint (or to the highest measurement reached during the assay for Fig. EV3).
Plasmodium berghei ANKA Bergreen (22) or GFP-Luc (RMgm-29) (23), respectively
expressing green fluorescent protein (GFP) or a GFP-Luciferase fusion protein, were
maintained under routine conditions in SWR/J Mus musculus mice and Anopheles stephensi
Growth inhibition of P. berghei liver-stages was investigated after infection of human
hepatoma cells (Huh7) and subsequent growth for 48 hours at 37° C, 5% CO2 and 80%
humidity. The day prior to infection, 10,000 Huh7 cells were seeded in dark-sided 96-well
microplates (Greiner Bio One). On the day of infection, compounds or solvent controls
(DMSO) were serially diluted in culture media and 5,000 – 10,000 Bergreen or GFP-Luc
sporozoites were added per well following dissection from infected A. stephensi salivary
glands. Uninfected wells served as control for background luminescence. To promote invasion,
the plates were centrifuged at 1,550 g for 5 minutes. After 60 minutes, the media was
completely replaced with fresh, prewarmed media with the matching drug concentrations.
Media was partially replaced with new drug dilutions over the following two days. 48 hours
post-infection, luminescence signal was measured by addition of 1:1 ONE-GloTM substrate
(Promega) to the wells, followed by detection at 300 – 700 nm using a Synergy HTX plate

[4] = 1.562500000 uM, listed as HJB8a53, 1.5625 µM
[5] = 50.000000000 uM, listed as HJB8a53, 50 µM
[6] = 100.000000000 uM, listed as HJB8a53, 100 µM

CC(C)OC(=O)CCC(=O)O[C@H]1CC[C@H]2[C@@H]3CC=C4C[C@@H](O)CC[C@]4(C)[C@H]3CC[C@]12C [C-17-link]
Gametocyte stage III-IV viability, percentage of control [1, 4]: 101% and 107% and 102.8% and 99.18% (2×) and 99.4% and 102.9% and 101.9% and 93.96% and 97.92% and 98.49%
Gametocyte stage III-IV viability, percentage of control ([1]; 3.125000000 uM, listed as HJB8a53, 3.125 µM): 105.6% and 102% and 105.7% and 98.51% and 101.4% and 101.9% (2×) and 99.18% and 90.27% and 91.12% and 94.52%
Gametocyte stage III-IV viability, percentage of control ([1]; 6.250000000 uM, listed as HJB8a53, 6.25 µM): 99.6% and 103.8% and 106.8% and 101.2% and 104.3% and 103.3% and 101% and 100.8% and 93.96% and 96.79% and 98.77%
Gametocyte stage III-IV viability, percentage of control ([1]; 12.500000000 uM, listed as HJB8a53, 12.5 µM): 107.8% and 104% and 107.2% and 101.4% and 104.1% (2×) and 102.9% and 101% and 94.24% and 97.07% and 99.62%
Gametocyte stage III-IV viability, percentage of control ([1]; 25.000000000 uM, listed as HJB8a53, 25 µM): 98.8% and 98.2% and 107.2% and 103.9% and 105.9% and 102.5% and 102.3% and 103.5% and 88.86% and 88.57% and 89.42%
Gametocyte stage III-IV viability, percentage of control [1, 5]: 91.61% and 97.2% and 99.4% and 103.4% and 99.63% and 101% and 91.35% and 89.5% and 90.53% and 84.89% and 81.49% and 79.23%
Gametocyte stage III-IV viability, percentage of control [1, 6]: 87.57% and 87.36% and 83.7% and 97.18% and 90.82% and 86.32% and 9.91% and 5.752% and 9.494% and 21.99% and 34.89% and 34.32%
viability at 1.5625 µM ([1]; Plasmodium falciparum, read-out: Gametocyte stage III-IV viability, percentage of control, 1.562500000 uM, 48 h, replicate values, source data Fig. 2C): 94.6%
viability at 3.125 µM ([1]; Plasmodium falciparum, read-out: Gametocyte stage III-IV viability, percentage of control, 3.125000000 uM, 48 h, replicate values, source data Fig. 2C): 94.6%
viability at 6.25 µM ([1]; Plasmodium falciparum, read-out: Gametocyte stage III-IV viability, percentage of control, 6.250000000 uM, 48 h, replicate values, source data Fig. 2C): 98.6%
viability at 12.5 µM ([1]; Plasmodium falciparum, read-out: Gametocyte stage III-IV viability, percentage of control, 12.500000000 uM, 48 h, replicate values, source data Fig. 2C): 99.8%
viability at 25 µM ([1]; Plasmodium falciparum, read-out: Gametocyte stage III-IV viability, percentage of control, 25.000000000 uM, 48 h, replicate values, source data Fig. 2C): 92.6%
pIC50 ([1]; Plasmodium falciparum, read-out: IC50, P. falciparum gametocyte stage III-IV inhibition, 48 h): < 4.00
Gametocyte stage V viability, percentage of control [2, 4]: 100.2% and 98.56% and 92.55% and 112.8% and 114.5% and 98.06% and 102.7% and 106.9% and 101%
Gametocyte stage V viability, percentage of control [2, 5]: 69.57% and 81.64% and 85.27%
Gametocyte stage V viability, percentage of control [2, 6]: 29.13% and 28.63% and 16.49% and 6.64% and 5.637% and 3.021% and 27.44% and 23.3% and 20.39%
viability at 6.25 µM ([2]; Plasmodium falciparum, read-out: Gametocyte stage V viability, percentage of control, 6.250000000 uM, 48 h, replicate values, source data Fig. 2D): 102%
viability at 12.5 µM ([2]; Plasmodium falciparum, read-out: Gametocyte stage V viability, percentage of control, 12.500000000 uM, 48 h, replicate values, source data Fig. 2D): 96.4%
pIC50 ([2]; Plasmodium falciparum, read-out: IC50, P. falciparum gametocyte stage V inhibition): 4.16
pIC50 [3]: 4.62
P. berghei liver stage growth, dose-response data points (Figure 3A) (P. berghei liver stages; 0.015241580 uM): 96.98 and 119.7 and 83.36 and 88.47 and 108.4 and 103.1 and 97.22 and 85.28 and 117.5
P. berghei liver stage growth, dose-response data points (Figure 3A) (P. berghei liver stages; 0.045724740 uM): 121.9 and 106 and 104.9 and 85.8 and 115.6 and 102.5 and 72.1 and 100.2 and 87.82
P. berghei liver stage growth, dose-response data points (Figure 3A) (P. berghei liver stages; 0.137174210 uM): 107.2 and 102.6 and 90.17 and 92.54 and 104.7 and 117.6 and 63.06 and 70.96 and 103.2
Figure 3E dose-response value (replicates) (P. berghei liver stages; 0.292968750 uM): 91.07 and 89.1 and 95.27 and 90.14
P. berghei liver stage growth, dose-response data points (Figure 3A) (P. berghei liver stages; 0.411522630 uM): 124.2 and 100.4 and 115.1 and 111.4 and 113.3 and 113.5 and 80.27 and 84.75 and 95.46
Figure 3E dose-response value (replicates) (P. berghei liver stages; 0.585937500 uM): 99.86 and 89.88 and 84.85 and 85.63 and 89.93 and 92.67 and 90.44 and 102.5 and 92 and 98.72 and 111.5 and 102.9
Figure 3E dose-response value (replicates) (P. berghei liver stages; 1.171875000 uM): 96.5 and 101.8 and 91.15 and 89.59 and 89.72 and 89.39 and 88.5 and 90.85 and 89.8 and 102.1 and 102.3 and 93.29
P. berghei liver stage growth, dose-response data points (Figure 3A) (P. berghei liver stages; 1.234567900 uM): 118.5 and 135.5 and 116.3 and 100.4 and 96.61 and 100.7 and 64.72 and 81.15 and 106.8
Figure 3E dose-response value (replicates) (P. berghei liver stages; 2.343750000 uM): 99.05 and 88.35 and 98.38 and 79.46 and 78.82 and 91.42 and 85.51 and 85.36 and 86.3 and 87.79 and 95.63 and 94.28
P. berghei liver stage growth, dose-response data points (Figure 3A) (P. berghei liver stages; 3.703703700 uM): 114 and 106 (2×) and 125.3 and 90.63 and 118.1 and 93.53 and 101.3 and 118.6
Figure 3E dose-response value (replicates) (P. berghei liver stages; 4.687500000 uM): 81 and 89.1 and 99.07 and 91.89 and 81.35 and 88.41 and 75.07 and 84.23 and 79.29 and 90.54 and 102.2 and 92.05
Figure 3E dose-response value (replicates) (P. berghei liver stages; 9.375000000 uM): 89.91 and 74.54 and 79.38 and 86.26 and 88.67 and 93.48 and 71.57 and 72.81 and 73.33 and 83.01 and 90.9 and 81.08
P. berghei liver stage growth, dose-response data points (Figure 3A) (P. berghei liver stages; 11.111111100 uM): 92.44 and 108.3 and 77.69 and 72.06 and 110.1 and 86.05 and 62.44 and 84.4 and 99.5
Figure 3E dose-response value (replicates) (P. berghei liver stages; 18.750000000 uM): 68.62 and 75.11 and 71.21 and 83.74 and 80.37 and 86.75 and 49.64 and 47.74 and 45.02 and 68.49 and 77.9 and 71.84
P. berghei liver stage growth, dose-response data points (Figure 3A) (P. berghei liver stages; 33.333333300 uM): 25.52 and 39.13 and 33.46 and 43.83 and 48.03 and 60.49 and 20.73 and 60.95 and 57.96
Figure 3E dose-response value (replicates) (P. berghei liver stages; 37.500000000 uM): 25.13 and 30.9 and 15.88 and 48.26 and 43.84 and 49.75 and 11.26 and 13.01 and 10.8 and 38.05 and 39.89 and 41.67
Figure 3E dose-response value (replicates) (P. berghei liver stages; 75.000000000 uM): 2.196 and 1.744 and 3.137 and 1.33 and 2.981 and 3.396 and -0.3545 and -0.4946 and 0.272 and 5.931 and 5.012 and 6.082
P. berghei liver stage growth, dose-response data points (Figure 3A) (P. berghei liver stages; 100.000000000 uM): -0.5671 and 0.5671 and -2.836 and -0.2967 and -0.1696 and 0.5935 and 0.3513 and 0.08782 and 0.4391
pIC50 (P. berghei liver stages; Plasmodium berghei, Huh-7, 48 h, read-out: IC50, P. berghei liver stage growth inhibition): 4.53
